In ChEMBL document CHEMBL1129868 (Bioorg Med Chem Lett, 1997):

Key:
[1] = molecular target: Adrenergic receptor beta (Rattus norvegicus, UniProt P18090+P10608+P26255); experiment: The compound was tested for its ability to inhibit (-)-[3H]dihydroalprenolol binding to beta-adrenergic receptor sites in rat cortex
[2] = molecular target: Beta-1 adrenergic receptor (Cavia porcellus, UniProt B0FL73); experiment: Tested for beta-1-adrenergic blocking effect by measuring the ability to inhibit the positive inotropic effect of isoproterenol on the isolated right atrium of guinea pigs; assay type: functional, tissue-based, Cardiac atrium
[3] = Ratio of beta-1-adrenergic blocking effect to that of beta 2 -adrenergic blocking effect; assay type: functional

Beta-1 adrenergic receptor, sequence (B0FL73 whole entry): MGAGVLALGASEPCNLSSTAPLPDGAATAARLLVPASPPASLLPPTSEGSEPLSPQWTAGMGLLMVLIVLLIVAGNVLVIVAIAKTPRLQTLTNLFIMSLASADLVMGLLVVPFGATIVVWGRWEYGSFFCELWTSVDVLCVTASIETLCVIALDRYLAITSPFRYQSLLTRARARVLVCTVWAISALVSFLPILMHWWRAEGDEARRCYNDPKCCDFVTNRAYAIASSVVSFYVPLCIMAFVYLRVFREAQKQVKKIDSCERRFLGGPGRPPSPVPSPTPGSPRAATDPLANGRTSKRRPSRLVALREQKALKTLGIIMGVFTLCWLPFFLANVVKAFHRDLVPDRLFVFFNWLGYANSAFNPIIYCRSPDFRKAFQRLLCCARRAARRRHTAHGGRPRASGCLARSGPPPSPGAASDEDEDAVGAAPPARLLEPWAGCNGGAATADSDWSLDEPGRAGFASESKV

| IC50 [1] [nM] | IC50 [2] [nM] | Compound | Ratio [3] |
| --- | --- | --- | --- |
| > 100000 | – | COCCc1ccc(OC(F)(F)[C@H](O)CNC(C)C)cc1 | – |
| 1540 | 1350 | COCCc1ccc(OC(F)(F)[C@@H](O)CNC(C)C)cc1 | 0.63 |
